Assay results as given in US20200231685A1, “CONJUGATES FOR TREATING INFLAMMATORY DISEASE AND IDENTIFICATION OF PATIENTS LIKELY TO BENEFIT FROM SUCH TREATMENT” (The University of Bristol, priority 2013, published 2020).

Tests used:
Th17 (CCR6+) cells = experiment: Intracellular IL-17 / IFN-γ expression by flow cytometry in human Th17 cultures; format: cell-based
Excerpt: Absolute expression was plotted on a log2 scale colour coded from low to high expression. […] All data are represented as mean±SEM.
CCR6 positive and CCR6 negative CD4^+ T cells were purified and cultured in the presence of polarising cytokines for two weeks. […] Intracellular cytokines were quantified by flow cytometry (FIG. 23A) and percentage suppression calculated in relation to an untreated control (FIG. 23B). Data represents the mean expression of three to four normal volunteers, with error expressed as standard deviation.
Therefore, to determine whether in vitro, human CD4+Th17 T cells were responsive to glucocorticoids, we generated an IL-17 secreting CD4+ T cell subset using the innate expression of CCR6. […] As a result of glucocorticoid binding the glucocorticoid receptor (GR), the GR translocates to the nucleus and binds to glucocorticoid-response elements within the DNA. […] We then compared the translocation of the GR in Th17 and Th0 cells.
Cell Cultures. Murine Naive T cells were obtained from lymph nodes and spleens of OT-II/3A9 mice using CD4 positive selection kits following the manufacturer's instructions (Miltenyi Biotech). Splenocytes from respective wild-type mice were irradiated and mixed with the CD4^+ T cells at a 1:10 ratio. […] All cells were kept in a 37° C., 5% CO2 humidified incubator. Cells were used after two rounds of activation. Human peripheral CD4^+CCR6^− (Th0) and CD4^+CCR6^+ (Th17) cells were FACS sorted, resuspended to 2×10^6cells/ml in complete RPMI-1640 (Invitrogen) supplemented with 10% FCS, L-glutamine and Penicillin/streptomycin (all PAA Laboratories Ltd, UK), stimulated with plate-bound 5 μg/ml anti-CD3 and 5 μg/ml anti-CD28 antibodies (eBioscience, US) (Th0) or with plate-bound antibodies and a polarizing cytokine cocktail of 20 ng/ml IL-6, 10 ng/ml IL-23, 10 ng/ml IL-1β (R&D Systems, US), 100 ng/ml anti-IFN-γ, 100 ng/ml anti-IL-4 (eBioscience, US) (Th17) for 3 days. […]

CD4+ T cells = experiment: Inhibition of isolated CD4+ T cell proliferation (tritiated thymidine incorporation); format: cell-based, human
Protocol: Proliferation was measured by tritiated thymidine incorporation (ccpm). Data represents the mean of two normal volunteers, with error expressed as standard deviation.
T Cell Proliferation Assays. T cell proliferation was measured by pulsing with 18.5 kBq [^3H] thymidine (GE Healthcare, US) per well for the final 12 hours of cultures and determining thymidine uptake in counts per minute (c.p.m).

Th0 (CCR6-) cells = experiment: Intracellular IFNγ expression by flow cytometry in human Th0 cultures; format: cell-based; settings: 24 hrs incubation
Excerpt: FIGS. 23A-23B show suppression of IL-17A in human Th17 (CCR6+) cells and IFNγ cytokine production in human Th0 (CCR6^−) and Th17 cells. CCR6 positive and CCR6 negative CD4^+ T cells were purified and cultured in the presence of polarising cytokines for two weeks. […] Intracellular cytokines were quantified by flow cytometry (FIG. 23A) and percentage suppression calculated in relation to an untreated control (FIG. 23B). Data represents the mean expression of three to four normal volunteers, with error expressed as standard deviation.
Cell Cultures. Murine Naive T cells were obtained from lymph nodes and spleens of OT-II/3A9 mice using CD4 positive selection kits following the manufacturer's instructions (Miltenyi Biotech). Splenocytes from respective wild-type mice were irradiated and mixed with the CD4^+ T cells at a 1:10 ratio. […] All cells were kept in a 37° C., 5% CO2 humidified incubator. Cells were used after two rounds of activation. […]

[1] = tested on: Experimental Autoimmune Uveitis (EAU); format: in vivo, mouse; settings: Day 18; PMA and ionomycin 4 hours

Structure (SMILES): C=CC[C@@H]1/C=C(\C)C[C@H](C)C[C@H](OC)[C@H]2O[C@@](O)(C(=O)C(=O)N3CCCC[C@H]3C(=O)O[C@H](/C(C)=C/[C@@H]3CC[C@@H](O)[C@H](OC)C3)[C@H](C)[C@@H](O)CC1=O)[C@H](C)C[C@@H]2OC [tacrolimus]
- suppression of IFNγ production in Th17 cells (Th17 (CCR6+) cells; 24 hrs incubation): equally suppress
- suppression of IL-17A production in Th17 (CCR6+) cells (Th17 (CCR6+) cells; 24 hrs incubation): equally suppress
- dose required for cytokine suppression, less than cyclosporine A (Th17 (CCR6+) cells; IL-17 in Th17, IFNγ in Th17 and Th0 cells): 20 ×
- concentration for full inhibition of CD4+ cell proliferation, lower compared with cyclosporine A (CD4+ T cells): 20 fold
- dose achieving the same inhibition of CD4+ T cell proliferation (CD4+ T cells): 10 ng/mL
- suppression of IFNγ production in Th0 (CCR6-) cells (Th0 (CCR6-) cells): equally suppress

Structure (SMILES): C[C@@H]1C[C@H]2[C@@H]3CCC4=CC(=O)C=C[C@]4(C)[C@@]3(F)[C@@H](O)C[C@]2(C)[C@@]1(O)C(=O)CO [Dex, dexamethasone]
- suppression of IFN-γ expression in eye infiltrating CD4+ cells [1]: 45%
